Data as given in PMC11606603, “The membrane domains of mammalian adenylyl cyclases are lipid receptors” (eLife, 2024).
Values joined by “and” are separate entries in the source; they are usually repeats but may differ in a detail not shown here. Identical values can stand only once.

Tests used:
Format in all cases: biochemical
mAC1 = molecular target: T1, mAC1 (Homo sapiens, UniProt Q08828); test: AC assay, Gsα-stimulated mAC1 in membranes from transfected HEK293 cells; details: 20 µM fatty acid; 300 nM Gsα; single experiments
T1 construct: Human mAC genes were from GenScript and fitted with a C-terminal FLAG-tag; FLAG (C); made in house; host or cells: HEK293, permanently transfected; membrane preparation
Experimental: (§1) hAC sequences were from NCBI were: ADCY1: NM_021116.3; ADCY2: NM_020546.2; ADCY3: NM_004036.4; ADCY4: NM_001198568.2; ADCY5: NM_183357.2; ADCY6: NM_015270.4; ADCY7: NM_001114.4; ADCY8: NM_001115.2; ADCY9: NM_001116.3. Human mAC genes were from GenScript and fitted with a C-terminal FLAG-tag. […] The gene was synthesized by GenScript. HEK293 cells were maintained in Dulbeccos Modified Eagle Medium (DMEM) with 10% fetal bovine serum at 37°C and 5% CO2. Transfection with AC plasmids was with PolyJet (SignaGen, Frederick, MD, USA). Permanent cell lines were generated by selection for 7 days with 600 µg/ml G418 and maintained with 300 µg/ml For membrane preparation, cells were tyrpsinized, collected by centrifugation (3000 × g, 5 min) and lysed and homogenized in 20 mM HEPES, pH 7.5, 1 mM Ethylenediaminetetraacetic acid (EDTA), 2 mM MgCl2, 1 mM Dithiothreitol (DTT), one tablet of cOmplete, EDTA-free (per 50 ml) and 250 mM sucrose by 20 strokes in a potter homogenizer on ice. Debris was removed (5 min at 1000 × g, 0°C), membranes were collected at 100,000 × g, 60 min at 0°C, suspended and stored at −80°C in 20 mM MOPS, pH 7.5, 0.5 mM EDTA, 2 mM MgCl2. […] Three cerebral cortices were dissected and homogenized in 4.5 ml cold 48 mM Tris–HCl, pH 7.4, 12 mM MgC1_2, and 0.1 mM Ethylene glycol-bis(β-aminoethyl ether)-N,N,N′,N′-tetraacetic acid (EGTA) with a Polytron hand disperser (Kinematica AG, Switzerland). […] The pellet was washed once with 5 ml 1 mM KHCO3. The final suspension in 2 ml 1 mM KHCO3 was stored in aliquots at −80°C.
(§2) In a volume of 10 μl, AC activities were measured using 1 mM ATP, 2 mM MgCl2, 3 mM creatine phosphate, 60 μg/ml creatine kinase, and 50 mM MOPS pH 7.5. The cAMP assay kit from Cisbio (Codolet, France) was used for detection according to the supplier’s instructions. For each assay, a cAMP standard curve was established. EC50 and IC50 values were calculated by GraphPad Prism version 8.4.3 for Windows, GraphPad Software, San Diego, CA, USA, https://www.graphpad.com .

mAC8 = molecular target: T2, mAC8 (Homo sapiens, UniProt P40145); test: AC assay, Gsα-stimulated mAC8 in membranes from transfected HEK293 cells; details: 20µM fatty acid concentration
T2 construct: Human mAC genes were from GenScript and fitted with a C-terminal FLAG-tag; FLAG (C); made in house; host or cells: HEK293, permanently transfected; membrane preparation
Experimental: as §1, §2

mAC3 = molecular target: T3, mAC3 (Homo sapiens, UniProt O60266); test: AC assay, Gsα-stimulated mAC3 in membranes from transfected HEK293 cells; details: for Effect of lipid on 300 nM Gsα-stimulated mAC3: 20 µM, in words; for mAC3 activity [%] (100% = 300nM Gsα stimulation): individual experiments
T3 construct: Human mAC genes were from GenScript and fitted with a C-terminal FLAG-tag; FLAG (C); made in house; host or cells: HEK293, permanently transfected; membrane preparation
Experimental: as §1, §2

mAC5 = molecular target: T4, mAC5 (Homo sapiens, UniProt O95622); test: AC assay, Gsα-stimulated mAC5 in membranes from transfected HEK293 cells
T4 construct: Human mAC genes were from GenScript and fitted with a C-terminal FLAG-tag; FLAG (C); made in house; host or cells: HEK293, permanently transfected; membrane preparation
Experimental: as §1, §2

mAC6 = molecular target: T5, mAC6 (Homo sapiens, UniProt O43306); test: AC assay, Gsα-stimulated mAC6 in membranes from transfected HEK293 cells; details: 20µM fatty acid concentration
T5 construct: Human mAC genes were from GenScript and fitted with a C-terminal FLAG-tag; FLAG (C); made in house; host or cells: HEK293, permanently transfected; membrane preparation
T5 sequence (O43306 whole entry): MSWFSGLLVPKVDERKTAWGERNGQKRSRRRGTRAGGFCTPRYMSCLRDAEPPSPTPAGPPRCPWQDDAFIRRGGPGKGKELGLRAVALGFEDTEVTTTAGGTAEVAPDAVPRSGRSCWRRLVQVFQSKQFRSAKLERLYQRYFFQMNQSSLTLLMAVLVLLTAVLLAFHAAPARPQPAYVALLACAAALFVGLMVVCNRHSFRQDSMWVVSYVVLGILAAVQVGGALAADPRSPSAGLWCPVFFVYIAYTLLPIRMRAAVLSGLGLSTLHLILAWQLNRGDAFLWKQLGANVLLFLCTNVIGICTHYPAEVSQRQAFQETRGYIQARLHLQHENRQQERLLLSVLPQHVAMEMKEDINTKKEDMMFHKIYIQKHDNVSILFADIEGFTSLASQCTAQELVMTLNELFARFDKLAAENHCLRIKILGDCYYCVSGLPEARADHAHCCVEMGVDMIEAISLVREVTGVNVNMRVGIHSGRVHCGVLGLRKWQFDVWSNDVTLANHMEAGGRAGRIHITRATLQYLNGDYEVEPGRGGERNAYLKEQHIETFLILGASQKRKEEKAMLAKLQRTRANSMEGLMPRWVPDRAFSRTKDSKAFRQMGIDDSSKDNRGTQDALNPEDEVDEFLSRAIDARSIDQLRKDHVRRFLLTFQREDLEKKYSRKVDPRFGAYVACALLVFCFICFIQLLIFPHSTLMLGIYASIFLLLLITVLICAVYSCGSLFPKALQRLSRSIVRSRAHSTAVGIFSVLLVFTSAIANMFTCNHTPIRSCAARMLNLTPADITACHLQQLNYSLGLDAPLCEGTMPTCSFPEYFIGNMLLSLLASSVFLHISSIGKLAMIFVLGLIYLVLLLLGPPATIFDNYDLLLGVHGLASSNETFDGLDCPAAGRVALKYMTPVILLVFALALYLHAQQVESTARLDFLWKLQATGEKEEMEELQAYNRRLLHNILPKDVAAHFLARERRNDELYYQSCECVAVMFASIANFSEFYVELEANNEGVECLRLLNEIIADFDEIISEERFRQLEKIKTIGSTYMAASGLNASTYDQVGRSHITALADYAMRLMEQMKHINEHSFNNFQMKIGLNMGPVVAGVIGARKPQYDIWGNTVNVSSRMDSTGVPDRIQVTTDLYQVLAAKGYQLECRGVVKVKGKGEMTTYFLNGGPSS
Experimental: as §1, §2

mAC2 = molecular target: T6, mAC2 (Homo sapiens, UniProt Q08462); test: AC assay, Gsα-stimulated mAC2 in membranes from transfected HEK293 cells; details: Figure 5-figure supplement 1 left, 20 µM
T6 construct: Human mAC genes were from GenScript and fitted with a C-terminal FLAG-tag; FLAG (C); made in house; host or cells: HEK293, permanently transfected; membrane preparation
T6 sequence (Q08462 whole entry): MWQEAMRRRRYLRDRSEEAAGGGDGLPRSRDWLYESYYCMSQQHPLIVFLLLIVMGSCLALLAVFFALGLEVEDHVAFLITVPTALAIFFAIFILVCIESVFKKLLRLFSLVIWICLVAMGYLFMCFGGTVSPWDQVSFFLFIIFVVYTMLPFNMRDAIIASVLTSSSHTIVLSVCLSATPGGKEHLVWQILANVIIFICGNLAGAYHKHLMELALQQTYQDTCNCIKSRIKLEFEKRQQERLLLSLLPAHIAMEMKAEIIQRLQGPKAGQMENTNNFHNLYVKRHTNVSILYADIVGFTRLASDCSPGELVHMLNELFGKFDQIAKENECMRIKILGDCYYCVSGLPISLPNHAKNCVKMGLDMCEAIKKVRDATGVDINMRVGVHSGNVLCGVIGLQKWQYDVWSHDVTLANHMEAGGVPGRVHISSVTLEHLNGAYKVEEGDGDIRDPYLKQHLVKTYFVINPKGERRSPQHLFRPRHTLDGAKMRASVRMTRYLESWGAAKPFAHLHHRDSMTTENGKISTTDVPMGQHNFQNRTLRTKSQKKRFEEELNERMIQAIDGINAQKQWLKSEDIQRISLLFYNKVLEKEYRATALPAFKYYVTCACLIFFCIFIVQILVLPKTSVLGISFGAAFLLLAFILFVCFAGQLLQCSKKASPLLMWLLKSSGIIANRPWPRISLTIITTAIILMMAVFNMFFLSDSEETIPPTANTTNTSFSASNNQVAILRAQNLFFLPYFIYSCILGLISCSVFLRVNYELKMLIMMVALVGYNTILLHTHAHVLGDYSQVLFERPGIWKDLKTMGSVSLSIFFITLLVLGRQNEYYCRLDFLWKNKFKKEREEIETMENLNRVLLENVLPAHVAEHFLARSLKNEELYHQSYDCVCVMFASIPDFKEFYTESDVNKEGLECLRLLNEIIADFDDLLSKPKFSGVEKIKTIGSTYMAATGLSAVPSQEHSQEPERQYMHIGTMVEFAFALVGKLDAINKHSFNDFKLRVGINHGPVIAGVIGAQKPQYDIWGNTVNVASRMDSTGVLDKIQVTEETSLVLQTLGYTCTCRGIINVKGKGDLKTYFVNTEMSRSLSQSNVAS
T6 sequence (P63092 2-394 Q227L partner): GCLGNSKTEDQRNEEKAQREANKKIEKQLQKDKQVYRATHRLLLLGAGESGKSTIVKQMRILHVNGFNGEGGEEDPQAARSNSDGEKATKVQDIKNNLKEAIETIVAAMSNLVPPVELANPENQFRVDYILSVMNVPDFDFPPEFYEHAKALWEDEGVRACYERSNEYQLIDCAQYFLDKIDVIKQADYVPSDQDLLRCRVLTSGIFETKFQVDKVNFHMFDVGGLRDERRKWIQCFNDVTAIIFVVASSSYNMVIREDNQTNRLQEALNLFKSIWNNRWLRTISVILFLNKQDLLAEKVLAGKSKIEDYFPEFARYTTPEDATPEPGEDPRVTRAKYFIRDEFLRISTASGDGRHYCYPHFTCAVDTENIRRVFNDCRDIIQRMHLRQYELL
Experimental: as §1, §2

mAC7 = molecular target: T7, mAC7 (Homo sapiens, UniProt P51828); test: AC assay, Gsα-stimulated mAC7 in membranes from transfected HEK293 cells; details: Figure 5-figure supplement 2 left, 20 µM
T7 construct: Human mAC genes were from GenScript and fitted with a C-terminal FLAG-tag; FLAG (C); made in house; host or cells: HEK293, permanently transfected; membrane preparation
Experimental: as §1, §2

mAC9 = molecular target: T8, mAC9 (Homo sapiens, UniProt O60503); test: AC assay, Gsα-stimulated mAC9 in membranes from transfected HEK293 cells; details: for mAC9 activity (%);(100% = Gsα stimulation) stimulated by 300nM Gsα: single experiments
T8 construct: Human mAC genes were from GenScript and fitted with a C-terminal FLAG-tag; FLAG (C); made in house; host or cells: HEK293, permanently transfected; membrane preparation
T8 sequence (O60503 whole entry): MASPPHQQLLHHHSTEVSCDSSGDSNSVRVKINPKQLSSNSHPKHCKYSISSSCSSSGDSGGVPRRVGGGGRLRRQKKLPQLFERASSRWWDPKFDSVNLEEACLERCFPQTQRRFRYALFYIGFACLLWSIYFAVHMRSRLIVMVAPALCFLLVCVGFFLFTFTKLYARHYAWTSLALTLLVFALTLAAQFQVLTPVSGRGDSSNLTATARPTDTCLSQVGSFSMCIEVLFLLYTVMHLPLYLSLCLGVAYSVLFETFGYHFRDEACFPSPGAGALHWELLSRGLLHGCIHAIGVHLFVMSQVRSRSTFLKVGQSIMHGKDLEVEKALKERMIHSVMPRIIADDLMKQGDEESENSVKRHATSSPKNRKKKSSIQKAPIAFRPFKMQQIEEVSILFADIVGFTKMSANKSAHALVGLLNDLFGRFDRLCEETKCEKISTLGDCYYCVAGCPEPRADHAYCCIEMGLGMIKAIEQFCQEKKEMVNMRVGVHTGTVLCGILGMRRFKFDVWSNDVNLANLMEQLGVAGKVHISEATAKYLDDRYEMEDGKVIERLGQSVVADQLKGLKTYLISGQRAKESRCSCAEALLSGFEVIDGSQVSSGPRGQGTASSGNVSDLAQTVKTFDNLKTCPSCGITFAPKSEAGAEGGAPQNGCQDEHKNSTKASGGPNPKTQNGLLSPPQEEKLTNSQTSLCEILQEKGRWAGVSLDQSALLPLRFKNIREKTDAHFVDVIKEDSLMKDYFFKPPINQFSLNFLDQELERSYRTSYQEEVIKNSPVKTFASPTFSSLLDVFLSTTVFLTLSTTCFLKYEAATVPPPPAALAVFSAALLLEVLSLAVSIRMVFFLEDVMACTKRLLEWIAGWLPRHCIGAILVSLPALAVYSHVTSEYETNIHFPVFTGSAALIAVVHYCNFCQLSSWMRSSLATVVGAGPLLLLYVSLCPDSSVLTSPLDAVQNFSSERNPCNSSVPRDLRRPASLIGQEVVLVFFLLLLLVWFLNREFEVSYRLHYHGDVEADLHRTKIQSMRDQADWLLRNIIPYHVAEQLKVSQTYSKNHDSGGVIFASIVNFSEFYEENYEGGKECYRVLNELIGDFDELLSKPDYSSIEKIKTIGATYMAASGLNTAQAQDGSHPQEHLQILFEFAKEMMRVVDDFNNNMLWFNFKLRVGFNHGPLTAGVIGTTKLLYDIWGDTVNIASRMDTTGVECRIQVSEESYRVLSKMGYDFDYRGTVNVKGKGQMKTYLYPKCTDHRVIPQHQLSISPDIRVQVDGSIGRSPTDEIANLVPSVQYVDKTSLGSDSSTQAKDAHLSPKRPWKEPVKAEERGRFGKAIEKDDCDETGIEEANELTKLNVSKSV
T8 sequence (P63092 2-394 Q227L partner): as the sequence (P63092 2-394 Q227L partner) above
Experimental: as §1, §2

mAC4 = molecular target: T9, mAC4 (Homo sapiens, UniProt Q8NFM4); test: AC assay, Gsα-stimulated mAC4 in membranes from transfected HEK293 cells; details: 20 µM fatty acid; 300 nM Gsα; single experiments
T9 construct: Human mAC genes were from GenScript and fitted with a C-terminal FLAG-tag; FLAG (C); made in house; host or cells: HEK293, permanently transfected; membrane preparation
T9 sequence (Q8NFM4 1-1077): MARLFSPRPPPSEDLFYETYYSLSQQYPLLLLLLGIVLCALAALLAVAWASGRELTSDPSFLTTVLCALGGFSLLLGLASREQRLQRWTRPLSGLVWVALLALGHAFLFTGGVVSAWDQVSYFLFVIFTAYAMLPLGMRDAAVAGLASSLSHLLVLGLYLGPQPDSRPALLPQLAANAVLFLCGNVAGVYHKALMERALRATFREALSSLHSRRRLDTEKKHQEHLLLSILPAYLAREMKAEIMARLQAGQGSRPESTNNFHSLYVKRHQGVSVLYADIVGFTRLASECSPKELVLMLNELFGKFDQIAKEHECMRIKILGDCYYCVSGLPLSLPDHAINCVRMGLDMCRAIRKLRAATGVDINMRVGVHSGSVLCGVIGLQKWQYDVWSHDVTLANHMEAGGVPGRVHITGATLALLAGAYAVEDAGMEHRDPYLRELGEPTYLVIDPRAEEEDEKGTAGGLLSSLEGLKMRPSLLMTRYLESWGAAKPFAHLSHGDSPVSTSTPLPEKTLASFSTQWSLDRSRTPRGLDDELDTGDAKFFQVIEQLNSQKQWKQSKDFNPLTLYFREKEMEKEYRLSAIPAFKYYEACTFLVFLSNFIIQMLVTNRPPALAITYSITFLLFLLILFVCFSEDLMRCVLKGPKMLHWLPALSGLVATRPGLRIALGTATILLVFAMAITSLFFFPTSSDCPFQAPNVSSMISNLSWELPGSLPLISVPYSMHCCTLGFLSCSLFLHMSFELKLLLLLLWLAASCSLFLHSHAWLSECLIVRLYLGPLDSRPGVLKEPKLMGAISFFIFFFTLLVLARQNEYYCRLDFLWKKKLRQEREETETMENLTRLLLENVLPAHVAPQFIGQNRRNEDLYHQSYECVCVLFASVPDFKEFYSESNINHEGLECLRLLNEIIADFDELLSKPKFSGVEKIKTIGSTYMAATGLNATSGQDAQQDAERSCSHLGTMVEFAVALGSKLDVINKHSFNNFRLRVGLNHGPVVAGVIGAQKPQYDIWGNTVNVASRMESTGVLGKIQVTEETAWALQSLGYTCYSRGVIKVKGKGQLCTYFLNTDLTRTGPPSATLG
Experimental: as §1, §2

SMILES	mAC1 activity [%] (100% = 300nM Gsα stimulation); 20µM fatty acid concentration (mAC1)	mAC8 activity [%] (100% = 300nM Gsα stimulation) (mAC8)	Effect of lipid on 300 nM Gsα-stimulated mAC3 (mAC3)	mAC3 activity [%] (100% = 300nM Gsα stimulation) (mAC3; fatty acid 20 µM)	mAC5 activity [%] (100% = 300nM Gsα stimulation) (mAC5; 20µM fatty acid concentration)	mAC6 activity [%] (100% = 300nM Gsα stimulation) (mAC6)	mAC2 activity [%] (100% = 300nM Gsα stimulation); 20µM fatty acid concentration (mAC2)	mAC7 activity [%] (100% = 300nM Gsα stimulation); 20µM fatty acid concentration (mAC7)	mAC9 activity (%);(100% = Gsα stimulation) stimulated by 300nM Gsα (mAC9; 10 µM fatty acid)	mAC4 activity [%] (100% = 300nM Gsα stimulation); 20µM fatty acid concentration (mAC4)	other results
CCCCC/C=C\C/C=C\CCCCCCCC(=O)O [Linoleic acid, Linoleic ((9Z,12Z)-octadecadienoic) acid]	62% and 76% and 95%	119% and 212% and 115% and 129%	efficient enhancers	376% and 503% and 335% and 235% and 456%	112% and 153%	105% and 198% and 128%	118% and 99% and 198% and 131%	135% and 130%	240% and 217% and 225% and 306% and 322% and 286% and 203%		mAC9 activity (%);(100% = Gsα stimulation) stimulated by 300nM Gsα (mAC9; 1 µM fatty acid): 145% and 101% and 154% and 180%; mAC9 activity (%);(100% = Gsα stimulation) stimulated by 300nM Gsα (mAC9; 3 µM fatty acid): 129% and 139% and 117% and 119%; mAC9 activity (%);(100% = Gsα stimulation) stimulated by 300nM Gsα (mAC9; 6 µM fatty acid): 164% and 205% and 170% and 134% and 195%
CCCCCCCC/C=C\CCCCCCCC(N)=O [Oleamide, Oleamide ((9Z)-octadecenamide)]	99% and 109%	104% and 74%	less efficacious	154% and 144% and 201% and 238% and 301% and 167% and 90% and 168%	97% and 111%	98% and 77%	133% and 84%	107% and 99%		104% and 64% and 83%	
CCCCCCCCCCCCCCCC(=O)O [Palmitic acid, Palmitic (hexadecanoic) acid]	93% and 87% and 105%		less efficacious	279% and 263% and 138% and 341% and 182% and 165% and 224% and 164% and 153% and 126% and 243%	123% and 77% and 97%	91% and 114% and 61% and 106%	108% and 97%	106% and 127% and 193% and 124%	258% and 146% and 141% and 173% and 189% and 161% and 157%	76% and 92% and 77% and 101%	Effect of lipid on 300 nM Gsα-stimulated mAC3 (mAC3; listed as palmitic acid): twofold; EC50 (mAC3; enhancement of 300 nM Gsα-stimulated activity): 6.4 µM; mAC3 activity [%] (100% = 300nM Gsα stimulation) (mAC3; fatty acid 0.5 µM): 100%; mAC3 activity [%] (100% = 300nM Gsα stimulation) (mAC3; fatty acid 1 µM): 166% and 108% and 118% (2×) and 87% and 83% and 122%; mAC3 activity [%] (100% = 300nM Gsα stimulation) (mAC3; fatty acid 3 µM): 122% and 126% and 125% and 136% and 114% and 107% and 116%; mAC3 activity [%] (100% = 300nM Gsα stimulation) (mAC3; fatty acid 6 µM): 107% and 145% and 118% and 129% and 73% and 158% and 259%; mAC3 activity [%] (100% = 300nM Gsα stimulation) (mAC3; fatty acid 10 µM): 188% and 338% and 172% and 339% and 112% and 94% and 165% and 197% and 126% and 128% and 237%; mAC5 activity [%] (100% = 300nM Gsα stimulation) (mAC5; fatty acid 0.5 µM, individual experiments): 100%; mAC5 activity [%] (100% = 300nM Gsα stimulation) (mAC5; fatty acid 1 µM, individual experiments): 71% and 83% and 111%; mAC5 activity [%] (100% = 300nM Gsα stimulation) (mAC5; fatty acid 3 µM, individual experiments): 66% and 80% and 162%; mAC5 activity [%] (100% = 300nM Gsα stimulation) (mAC5; fatty acid 6 µM, individual experiments): 50% and 108% and 125%; mAC5 activity [%] (100% = 300nM Gsα stimulation) (mAC5; fatty acid 10 µM, individual experiments): 57% and 89% and 94% and 103%; mAC5 activity [%] (100% = 300nM Gsα stimulation) (mAC5; fatty acid 20 µM, individual experiments): 123% (2×) and 77% and 97%; mAC9 activity (%);(100% = Gsα stimulation) stimulated by 300nM Gsα (mAC9; 20 µM fatty acid): 184%; EC50 (mAC9; enhancement of 300 nM Gsα-stimulated activity, read-out: EC50 for mAC9): 8.6 µM
